This note sets out measurements from patent publication US20240101531A1, “PYRIDINAMINE DERIVATIVES AND THEIR USE AS POTASSIUM CHANNEL MODULATORS” (Xenon Pharmaceuticals Inc., priority 2022, published 2024).

The test deals with human KV7.2/KV7.3 (Homo sapiens (Human), UniProt O43525+O43526). As to the kind of experiment: Potassium flux assay (IPG-2 AM dye). The following applies: TREX HEK 293 or HEK 293 cells expressing human KV7.2/KV7.3; arithmetic mean values. It is filed as cell-based. From the text:
This potassium flux assay employs the cell-permeable, potassium-sensitive dye, IPG-2 AM, to quantify potassium ion flux through potassium channels.
In general, TREX HEK 293 or HEK 293 cells were stably transfected with either an inducible or non-inducible expression vector containing the full-length cDNA coding for the desired human KV7.2/KV7.3 or in combination with another full-length cDNA for a second desired human KV7 potassium channel. Potassium channel-expressing cell lines were induced with tetracycline (1 μg/mL), if required, and plated on 384-well poly-D-lysine (PDL)-coated plates in culture media (DMEM, containing 10% FBS and 1% L-glutamine). After overnight incubation, culture media was removed and cells were loaded with 5 μM IPG-2 AM dye for 1 hour in Assay buffer (140 mM NaCl, 20 mM RbCl, 2 mM CaCl2, 1 mM MgCl2, 10 mM HEPES (4-(2-hydroxyethyl)-1-piperazineethanesulfonic acid buffer), 10 mM glucose, adjusted with Tris to pH 7.4). Excess dye was removed, and cells incubated at room temperature for 20 minutes with or without test compound. A Hamamatsu FDSS μCell was used to perform a 1:1 addition of K challenge buffer (150 mM NaCl, 10 mM HEPES, 2 mM CaCl2, 10 mM KCl, 1 mM MgCl2, 10 mM glucose, adjusted with Tris to pH 7.4 for human KV7.2/KV7.3, and simultaneously read plates at excitation wavelength of 530 nm and emission wavelength of 558 nm. Non-potassium channel-mediated potassium influx was determined in the presence of DMSO, and maximal influx was determined in the presence of a known KV7.x channel modulator. For each test compound, a concentration response curve was generated with 16 concentrations points, 2-fold serial dilution starting at 30 μM and an EC50 value was determined.

Structures can show the parent of a compound that is named as a salt.

As to `CN(c1cnc(Cl)nc1)c1nccc2cc(OCC3(F)CC3)ccc12` [Example 144, N-(2-chloropyrimidin-5-yl)-6-((1-fluorocyclopropyl)methoxy)-N-methylisoquinolin-1-amine], the EC50 was ≥ 30000 nM.

As to `Cc1ncc(Nc2nccc3cc(OCC(F)F)ccc23)cn1` [Example 26, 6-(2,2-difluoroethoxy)-N-(2-methylpyrimidin-5-yl)isoquinolin-1-amine], the EC50 lay in the range of 1000 to 10000 nM.

Regarding `Cc1ncc(Nc2nccc3cc(OCc4cnn(C)c4)cnc23)cn1` [Example 258, 3-((1-methyl-1H-pyrazol-4-yl)methoxy)-N-(2-methylpyrimidin-5-yl)-1,7-naphthyridin-8-amine], the EC50 was 1000 to 10000 nM.

For `O[C@@H]1CCCC[C@@H]1Oc1ccc2c(Nc3ccc(Cl)nc3)nccc2c1` (relative stereo) [Example 142, cis-2-((1-((6-chloropyridin-3-yl)amino)isoquinolin-6-yl)oxy)cyclohexan-1-ol], the EC50 is < 1000 nM.

Regarding `Clc1ncc(Nc2nccc3cc(OCc4cnoc4)ccc23)cn1` [Example 242, N-(2-chloropyrimidin-5-yl)-6-(isoxazol-4-ylmethoxy)isoquinolin-1-amine], the EC50 is < 1000 nM.

For the compound `CC#CC(C)(C)COc1ccc2c(Nc3ccc(Cl)nc3)nccc2c1` [Example 161, N-(6-chloropyridin-3-yl)-6-((2,2-dimethylpent-3-yn-1-yl)oxy)isoquinolin-1-amine], the 50% effective concentration (EC50) lay in the range of 1000 to 10000 nM.

In the case of `Clc1ncc(Nc2nccc3cc(OCCc4cn[nH]c4)ccc23)cn1` [Example 390, 6-(2-(1H-pyrazol-4-yl)ethoxy)-N-(2-chloropyrimidin-5-yl)isoquinolin-1-amine formate], the EC50 was < 1000 nM.

Regarding `Cn1nccc1-c1ccc2c(Nc3ccc(Cl)nc3)nccc2c1` [Example 422, N-(6-chloropyridin-3-yl)-6-(1-methyl-1H-pyrazol-5-yl)isoquinolin-1-amine], the EC50 was 1000 to 10000 nM.

With `Cc1oncc1COc1ccc2c(Nc3ccc(Cl)nc3)nccc2c1` [Example 156, N-(6-chloropyridin-3-yl)-6-((5-methylisoxazol-4-yl)methoxy)isoquinolin-1-amine], the EC50 was < 1000 nM.

Take `O[C@H]1CC[C@@H](Oc2ccc3c(Nc4ccc(Cl)nc4)nccc3c2)C1` (racemic) [Example 102, rac-(1S,3R)-3-((1-((6-chloropyridin-3-yl)amino)isoquinolin-6-yl)oxy)cyclopentan-1-ol]: the EC50 was < 1000 nM.

As for `FC(F)c1ccc(Nc2nccc3cc(OCC4(F)CC4)ccc23)cn1` [Example 43, N-(6-(difluoromethyl)pyridin-3-yl)-6-((1-fluorocyclopropyl)methoxy)isoquinolin-1-amine], the EC50 was ≥ 30000 nM.

On to `CC1(COc2ccc3c(Nc4ccc(Cl)nc4)nccc3c2)CS(=O)(=O)C1` [Example 293, 3-(((1-((6-chloropyridin-3-yl)amino)isoquinolin-6-yl)oxy)methyl)-3-methylthietane 1,1-dioxide], for which the EC50 was < 1000 nM.

In the case of `N=[S@]1(=O)CCC[C@@H](COc2ccc3c(Nc4cnc(Cl)nc4)nccc3c2)C1` (relative stereo) [Example 366, cis-3-(((1-((2-chloropyrimidin-5-yl)amino)isoquinolin-6-yl)oxy)methyl)-1-iminohexahydro-1λ^6-thiopyran 1-oxide], the EC50 lay within 1000 to 10000 nM.

For `Clc1ccc(Nc2nccc3cc(OCCN4CC5(CCO5)C4)ccc23)cn1` [Example 70, 6-(2-(1-oxa-6-azaspiro[3.3]heptan-6-yl)ethoxy)-N-(6-chloropyridin-3-yl)isoquinolin-1-amine], the EC50 lay in the range of 10000 to 30000 nM.

In the case of `Clc1ccc(Nc2nccc3cc(OCC4CC45CCC5)ccc23)cn1` (stereo not shown) [Example 332, N-(6-chloropyridin-3-yl)-6-(spiro[2.3]hexan-1-ylmethoxy)isoquinolin-1-amine], the EC50 was 1000 to 10000 nM.

As to `CC(C)Oc1ccc2c(Nc3ccc(Cl)nc3)nccc2c1` [Example 1, N-(6-chloropyridin-3-yl)-6-isopropoxyisoquinolin-1-amine], the EC50 is 1000 to 10000 nM.

The EC50 is the concentration needed to bring the measured effect to its halfway point.
